# Measurements reported in patent US7709490B2, “4,5-diphenyl-pyrimidinyl substituted carboxylic acids, method for the production and use thereof as medicaments” (Sanofi-Aventis, priority 2006, dated 2010).
# Target: T1, GPCR GPR40 (Homo sapiens, UniProt O14842)
# T1 construct: expressed in transfected cells; host or cells: HEK293
# Experiment: In vitro FLIPR assay with recombinant cells which express the GPCR GPR40
# Assay type: cell-based
# Settings: 100 μM test substance; intracellular Ca2+ change in recombinant HEK293 cells expressing GPR40; relative to control (0%: no test substance; 100%: 10 μM linoleic acid)
# Protocol: In Vitro FLIPR Assay with Recombinant Cells which Express the GPCR GPR40
# Function-testing assays were carried out by means of the FLIPR technique (“Fluorescence Imaging Plate Reader”, Molecular Devices Corp.). For this purpose, agonist-induced changes in the intracellular concentration of Ca^2+ in recombinant HEK293 cells which expressed the GPCR GPR40 were determined.
# For the investigations, cells were seeded in 96-well microtiter plates (60 000 cells/well) and allowed to grow overnight. The medium was removed and the cells were incubated in buffer which contained the fluorescent dye fluo-4. After this loading with dye, the cells were washed, test substance was added, and changes in the intracellular Ca^2+ concentration were measured in the FLIPR instrument. Results have been presented as percentage change relative to the control (0%: no test substance added; 100%: 10 μM reference agonist linoleic acid added).
# T1 sequence (O14842 whole entry): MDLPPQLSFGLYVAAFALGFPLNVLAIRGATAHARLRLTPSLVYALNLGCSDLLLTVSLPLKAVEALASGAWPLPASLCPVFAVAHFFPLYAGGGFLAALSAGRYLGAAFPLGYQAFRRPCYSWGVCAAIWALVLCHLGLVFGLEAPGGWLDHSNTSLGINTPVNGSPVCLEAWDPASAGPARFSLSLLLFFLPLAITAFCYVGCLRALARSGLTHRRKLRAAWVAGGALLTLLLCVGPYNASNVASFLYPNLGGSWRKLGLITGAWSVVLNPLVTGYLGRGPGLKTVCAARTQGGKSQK
row,Structure (SMILES),% activation @ 100 μM
1,O=C(O)CCCC#Cc1ncc(-c2ccccc2)c(-c2ccccc2)n1 [Example 1],58%
2,"O=C(O)CCCCC#Cc1ncc(-c2ccccc2)c(-c2ccccc2)n1 [Example 2, 7-(4,5-Diphenylpyrimidin-2-yl)-6-heptynoic Acid]",104%
